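The compound was tested at five concentrations on cells cultured in 96-well plates, with a 48-hour exposure period. GI50: concentration for 50% inhibition of growth. The concentration for full growth arrest is given as TGI.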
Assays:
Test in all cases: growth of human tumour cells (NCI), 48 h
HCT-116 colon = system: HCT-116 colon
NCI-H522 lung = system: NCI-H522 lung
RXF 393 renal = system: RXF 393 renal
UACC-62 melanoma = system: UACC-62 melanoma
M14 melanoma = system: M14 melanoma
TK-10 renal = system: TK-10 renal
LOX IMVI melanoma = system: LOX IMVI melanoma
RPMI-8226 leukemia = system: RPMI-8226 leukemia
HCT-15 colon = system: HCT-15 colon
K-562 leukemia = system: K-562 leukemia
SNB-19 CNS = system: SNB-19 CNS
IGROV1 ovarian = system: IGROV1 ovarian
HOP-92 NSCLC = system: HOP-92 NSCLC
SK-OV-3 ovarian = system: SK-OV-3 ovarian
EKVX NSCLC = system: EKVX NSCLC
SNB-75 CNS = system: SNB-75 CNS
U251 CNS = system: U251 CNS
UO-31 renal = system: UO-31 renal
SK-MEL-5 melanoma = system: SK-MEL-5 melanoma
HS 578T breast = system: HS 578T breast
SF-539 CNS = system: SF-539 CNS
DU-145 prostate = system: DU-145 prostate
NCI-H460 lung = system: NCI-H460 lung
HCC-2998 colon = system: HCC-2998 colon
KM12 colon = system: KM12 colon
MDA-MB-468 breast = system: MDA-MB-468 breast
OVCAR-3 ovarian = system: OVCAR-3 ovarian
SF-295 CNS = system: SF-295 CNS
NCI-H226 lung = system: NCI-H226 lung
HOP-62 NSCLC = system: HOP-62 NSCLC

Q: What does the source list for O=C(COc1ccc(NC(=O)Nc2ccc(Cl)c(Cl)c2)cc1)N=Nc1c(O)[nH]c2ccccc12?
A: TGI (HCT-116 colon): 10.3 µM; GI50 (NCI-H522 lung): 2.49 µM; TGI (NCI-H522 lung): 8.06 µM; GI50 (RXF 393 renal): 2 µM; TGI (RXF 393 renal): 7.65 µM; GI50 (UACC-62 melanoma): 3.55 µM; TGI (UACC-62 melanoma): 13.8 µM; GI50 (M14 melanoma): 2.63 µM; TGI (M14 melanoma): 8.58 µM; GI50 (TK-10 renal): 10.6 µM; TGI (TK-10 renal): 28.6 µM; GI50 (LOX IMVI melanoma): 2.79 µM; TGI (LOX IMVI melanoma): 9.02 µM; GI50 (RPMI-8226 leukemia): 5.32 µM; TGI (RPMI-8226 leukemia): 29.8 µM; GI50 (HCT-15 colon): 46.8 µM; TGI (HCT-15 colon): > 100 µM; GI50 (K-562 leukemia): 3.46 µM; TGI (K-562 leukemia): 17.9 µM; GI50 (SNB-19 CNS): 2.89 µM; TGI (SNB-19 CNS): 10.5 µM; GI50 (IGROV1 ovarian): 4.59 µM; TGI (IGROV1 ovarian): 17.4 µM; GI50 (HOP-92 NSCLC): 2.58 µM; TGI (HOP-92 NSCLC): 9.45 µM; GI50 (SK-OV-3 ovarian): 3.28 µM; TGI (SK-OV-3 ovarian): 11.8 µM; GI50 (EKVX NSCLC): 6.11 µM; TGI (EKVX NSCLC): 28 µM; GI50 (SNB-75 CNS): 1.65 µM; TGI (SNB-75 CNS): 5.09 µM; GI50 (U251 CNS): 1.77 µM; TGI (U251 CNS): 3.32 µM; GI50 (UO-31 renal): 39 µM; TGI (UO-31 renal): > 100 µM; GI50 (SK-MEL-5 melanoma): 4.73 µM; TGI (SK-MEL-5 melanoma): 16.7 µM; GI50 (HS 578T breast): 3.06 µM; TGI (HS 578T breast): 12 µM; GI50 (SF-539 CNS): 1.97 µM; TGI (SF-539 CNS): 4.38 µM; GI50 (DU-145 prostate): 3.29 µM; TGI (DU-145 prostate): 18.7 µM; GI50 (NCI-H460 lung): 1.84 µM; TGI (NCI-H460 lung): 3.99 µM; GI50 (HCC-2998 colon): 5.31 µM; TGI (HCC-2998 colon): 18.1 µM; GI50 (KM12 colon): 2.87 µM; TGI (KM12 colon): 11.2 µM; GI50 (MDA-MB-468 breast): 1.8 µM; TGI (MDA-MB-468 breast): 3.8 µM; GI50 (OVCAR-3 ovarian): 2.02 µM; TGI (OVCAR-3 ovarian): 4.67 µM; GI50 (SF-295 CNS): 2.23 µM; TGI (SF-295 CNS): 5.45 µM; GI50 (NCI-H226 lung): 2.76 µM; TGI (NCI-H226 lung): 10.8 µM; GI50 (HOP-62 NSCLC): 2.34 µM; TGI (HOP-62 NSCLC): 5.82 µM
